This series is described as follows: Vacuum-assisted trans-epithelial delivery of riboflavin into rabbit corneas, compared with standard delivery after epithelium removal. The conditions noted are these: trans-epithelial vacuum delivery through intact epithelium, varying application time periods; compared with standard method in which the epithelium is surgically removed. Format: in vivo. The protocol:
The device and method herein were tested to verify the effectiveness of the vacuum delivery system and to quantify concentrations of the standard formulation of riboflavin that is used in the process of cross-linking collagen corneal tissue in rabbit corneas. The tests employed the present invention to facilitate trans-epithelial delivery of riboflavin at varying application time periods, and compare the concentrations achieved with the concentration of riboflavin achieved through the standard method of riboflavin delivery (i.e., in which the epithelium is surgically removed). […] In other embodiments, high levels of vacuum, higher riboflavin concentrations, and the use of penetration enhancers may be used to increase the amount of riboflavin diffusion into the cornea per unit time. These animal studies clearly provide a proof of principle for the efficacious delivery of riboflavin into the cornea, through an intact epithelium, using the device and method of this invention. These studies also provide critical concentration/treatment time data for utilizing this invention.

Turning to `Cc1cc2nc3c(=O)[nH]c(=O)nc-3n(C[C@H](O)[C@H](O)[C@H](O)CO)c2cc1C` [riboflavin], the “riboflavin delivery to the cornea (concentration achieved)” value is reported as “equivalent to the effect of removing the corneal epithelium”.

The values are drawn from patent US11351347B2, “Vacuum-assisted drug delivery device and method” (VacuMed, LLC., priority 2014, dated 2022).
